What was measured:
Format in all cases: functional
Conditions in all cases: read-out: DIZ
Fusarium oxysporum = assay: Antifungal activity against Fusarium oxysporum at 5 mg/ml by paper disc diffusion method
Rhizoctonia solani = assay: Antifungal activity against Rhizoctonia solani at 5 mg/ml by paper disc diffusion method
Aspergillus niger = assay: Antifungal activity against Aspergillus niger at 5 mg/ml by paper disc diffusion method
Bacillus subtilis = assay: Antibacterial activity against Bacillus subtilis at 5 mg/ml after 24 hrs by agar-diffusion technique
Pseudomonas aeruginosa = assay: Antibacterial activity against Pseudomonas aeruginosa at 5 mg/ml after 24 hrs by agar-diffusion technique

Row | Compound | zone of inhibition at 5000 µg/mL (Fusarium oxysporum) | zone of inhibition at 5000 µg/mL (Rhizoctonia solani) | zone of inhibition at 5000 µg/mL (Aspergillus niger) | zone of inhibition at 5000 µg/mL (Bacillus subtilis) | zone of inhibition at 5000 µg/mL (Pseudomonas aeruginosa)
1 | NNC(=O)c1cc2ccccc2[nH]1 | 1.3 mm | 0.85 mm | 0 mm | 12 mm | 3 mm
2 | CC(=O)N[C@@H]1[C@@H](OC(C)=O)[C@H](OC(C)=O)[C@@H](COC(C)=O)O[C@H]1Sc1n[nH]c(-c2cc3ccccc3[nH]2)n1 | 0 mm | 1.75 mm | 0 mm | 5.1 mm | 3.9 mm
3 | CC(=O)OC[C@H]1O[C@@H](n2nc(-c3cc4ccccc4[nH]3)nc2S[C@@H]2O[C@H](COC(C)=O)[C@@H](OC(C)=O)[C@H](OC(C)=O)[C@H]2OC(C)=O)[C@H](OC(C)=O)[C@@H](OC(C)=O)[C@@H]1OC(C)=O | 1.95 mm | 1.15 mm | 0 mm | 6.5 mm | 2.5 mm
4 | CCOC(=O)/C(C)=N/Nc1ccccc1 | 2.3 mm | 1.95 mm | 1.85 mm | 12 mm | 2.65 mm
5 | NC(=S)NNC(=O)c1cc2ccccc2[nH]1 | 1 mm | 1.05 mm | 0 mm | 12 mm | 2.5 mm
6 | S=c1nc(-c2cc3ccccc3[nH]2)[nH][nH]1 | 1.7 mm | 0.8 mm | 0 mm | 12 mm | 3.5 mm
7 | CC(=O)OC[C@H]1O[C@@H](Sc2n[nH]c(-c3cc4ccccc4[nH]3)n2)[C@H](OC(C)=O)[C@@H](OC(C)=O)[C@@H]1OC(C)=O | 0 mm | 0.6 mm | 0 mm | 12 mm | 3.25 mm
8 | CC(=O)OC[C@H]1O[C@@H](Sc2n[nH]c(-c3cc4ccccc4[nH]3)n2)[C@H](OC(C)=O)[C@@H](OC(C)=O)[C@H]1OC(C)=O | 2.1 mm | 0.75 mm | 0 mm | 12 mm | 0.5 mm
9 | CCOC(=O)c1cc2ccccc2[nH]1 | 1.9 mm | 2.7 mm | 1.3 mm | 5.6 mm | 4.85 mm
10 | O=C(N[C@H](CO)[C@H](O)c1ccc([N+](=O)[O-])cc1)C(Cl)Cl [CHLORAMPHENICOL] |  |  |  | 12 mm | 7.9 mm

Source: ChEMBL document CHEMBL2406921, “Regioselective synthesis, characterization and antimicrobial evaluation of S-glycosides and S,N-diglycosides of 1,2-Dihydro-5-(1H-indol-2-yl)-1,2,4-triazole-3-thione” (2013)
